According to ChEMBL document CHEMBL1201862, “PubChem BioAssay data set” (2004):
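Each compound was tested at five concentrations against cells in 96-well plates for 48 hours. Here, GI50 denotes the concentration required for 50% inhibition of growth.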 Active and inactive are the calls of the source. No stated cut-off is given here; in the data, active = GI50 up to about 1.1 µM and inactive = higher. Where a SMILES comes first, the peptide text is derived from it. The star is where a group is joined. Cbz = O=C(OCc1ccccc1)*

Key:
Experiment in all cases: NCI anticancer screen, dose series, 48 h
ACHN = test system: ACHN
CAKI-1 = test system: CAKI-1
HCT-116 = test system: HCT-116
HCT-15 = test system: HCT-15
HOP-62 = test system: HOP-62
Hs-578T = test system: Hs-578T
MCF7 = test system: MCF7
MDA-MB-231 = test system: MDA-MB-231
NCI-H460 = test system: NCI-H460
SF-295 = test system: SF-295
SF-539 = test system: SF-539
SK-MEL-5 = test system: SK-MEL-5
SN12C = test system: SN12C
SNB-19 = test system: SNB-19
SNB-75 = test system: SNB-75
SR = test system: SR
SW-620 = test system: SW-620
UO-31 = test system: UO-31
HCC 2998 = test system: HCC 2998
A498 = test system: A498

| SMILES | GI50 (ACHN) | GI50 (CAKI-1) | GI50 (HCT-116) | GI50 (HCT-15) [µM] | GI50 (HOP-62) | GI50 (Hs-578T) | GI50 (MCF7) | GI50 (MDA-MB-231) | GI50 (NCI-H460) | GI50 (SF-295) | GI50 (SF-539) | GI50 (SK-MEL-5) | GI50 (SN12C) | GI50 (SNB-19) | GI50 (SNB-75) | GI50 (SR) | GI50 (SW-620) | GI50 (UO-31) | GI50 (HCC 2998) | GI50 (A498) |
| --- | --- | --- | --- | --- | --- | --- | --- | --- | --- | --- | --- | --- | --- | --- | --- | --- | --- | --- | --- | --- |
| O=c1ccn(C2OC(CO)C(O)C2F)c(=O)n1Cc1ccccc1 (centres undefined) | > 100 µM (inactive) | > 100 µM (inactive) | > 100 µM (inactive) | > 100 | > 100 µM (inactive) | > 100 µM (inactive) | > 100 µM (inactive) | > 100 µM (inactive) | > 10 µM (inactive) | > 100 µM (inactive) | > 100 µM (inactive) | > 100 µM (inactive) | > 100 µM (inactive) | > 100 µM (inactive) | > 100 µM (inactive) | > 100 µM (inactive) | > 100 µM (inactive) | > 100 µM (inactive) | – | – |
| CCOC(=O)CCC(NC(=O)CNC(=O)CNC(=O)C(CCC(=O)OCC)NC(=O)C(CCC(=O)OCC)NC(=O)C(CCC(=O)OCC)NC(=O)OCc1ccccc1)C(=O)NC(CCC(=O)OCC)C(=O)NC(CCC(=O)OCC)C(=O)OCC (centres undefined) (Cbz-E(OEt)E(OEt)E(OEt)GGE(OEt)E(OEt)E(OEt)-OEt; configuration not given here) | > 75 µM (inactive) | > 75 µM (inactive) | > 75 µM (inactive) | > 75 | – | > 75 µM (inactive) | > 75 µM (inactive) | > 75 µM (inactive) | > 75 µM (inactive) | > 75 µM (inactive) | – | > 75 µM (inactive) | > 75 µM (inactive) | > 75 µM (inactive) | > 75 µM (inactive) | > 75 µM (inactive) | > 75 µM (inactive) | > 75 µM (inactive) | – | – |
| CCCCC(=C=C1CCCCC1O)C1CCCN1C(=O)OC(C)(C)C (centres undefined) | 15.8 µM (inactive) | 11.5 µM (inactive) | 14.3 µM (inactive) | 16.4 | 17 µM (inactive) | 19.3 µM (inactive) | 17.2 µM (inactive) | 16.1 µM (inactive) | 15.5 µM (inactive) | 14.8 µM (inactive) | 18.7 µM (inactive) | 16.6 µM (inactive) | 17.8 µM (inactive) | 16.4 µM (inactive) | 13.8 µM (inactive) | 23.6 µM (inactive) | 18.3 µM (inactive) | 21.3 µM (inactive) | 22.1 µM (inactive) | – |
| Cc1[nH]c(-c2ccccc2)c(-c2ccc(Cl)cc2)c1C(=O)ONC(=O)c1ccccc1 | 1.77 µM (inactive) | 2.44 µM (inactive) | 2.11 µM (inactive) | 6.17 | 2.07 µM (inactive) | 2.26 µM (inactive) | 11.9 µM (inactive) | 3.64 µM (inactive) | 2.11 µM (inactive) | 2.1 µM (inactive) | 2.22 µM (inactive) | 3.41 µM (inactive) | 2.25 µM (inactive) | 4.86 µM (inactive) | 3.56 µM (inactive) | – | 7.26 µM (inactive) | 0.113 µM (active) | 3.32 µM (inactive) | 6.24 µM (inactive) |
| O=c1c2cc(S(=O)(=O)Nc3ccc(Cl)cc3Cl)ccc2ncn1NS(=O)(=O)c1cccc2ccccc12 | 47.5 µM (inactive) | 15.7 µM (inactive) | 30.5 µM (inactive) | 34.1 | 41.3 µM (inactive) | 21.5 µM (inactive) | 20.7 µM (inactive) | 20.4 µM (inactive) | 36.6 µM (inactive) | 37.4 µM (inactive) | 38.3 µM (inactive) | – | 91.6 µM (inactive) | 21.6 µM (inactive) | 60.5 µM (inactive) | 22.9 µM (inactive) | 71.4 µM (inactive) | 14.1 µM (inactive) | 20 µM (inactive) | – |
| OCC(O)C(O)C(O)C(O)c1nc2cc(Cl)ccc2[nH]1 (centres undefined) | > 100 µM (inactive) | > 100 µM (inactive) | > 100 µM (inactive) | > 100 | 90.4 µM (inactive) | > 100 µM (inactive) | > 100 µM (inactive) | > 100 µM (inactive) | > 100 µM (inactive) | 28.8 µM (inactive) | > 100 µM (inactive) | > 100 µM (inactive) | > 100 µM (inactive) | > 100 µM (inactive) | > 100 µM (inactive) | – | > 100 µM (inactive) | > 100 µM (inactive) | > 100 µM (inactive) | > 100 µM (inactive) |
